Calls of active or inactive are those of the source. No cut-off for these calls is given here.
What was measured:
HCT-116 [1] = assay: Antiproliferative activity against human HCT-116 cells assessed as reduction in cell viability at 50 uM measured after 24 hrs; type: functional, cell-based
MGC-803 [2] = assay: Antiproliferative activity against human MGC-803 cells assessed as reduction in cell viability at 50 uM measured after 24 hrs; type: functional, cell-based
MCF7 [3] = assay: Antiproliferative activity against human MCF7 cells assessed as reduction in cell viability at 50 uM measured after 24 hrs; type: functional, cell-based
MGC-803 [4] = assay: Antiproliferative activity against human MGC-803 cells assessed as cell viability at 50 uM measured after 24 hrs relative to control; type: functional; conditions: read-out: Activity
MCF7 [5] = assay: Antiproliferative activity against human MCF7 cells assessed as reduction in cell viability measured after 24 hrs; type: functional, cell-based; conditions: MCF7, 24 h
HCT-116 [6] = assay: Antiproliferative activity against human HCT-116 cells assessed as reduction in cell viability measured after 24 hrs; type: functional, cell-based; conditions: HCT-116, 24 h
MCF7 [7] = assay: Antiproliferative activity against human MCF7 cells assessed as cell viability at 50 uM measured after 24 hrs relative to control; type: functional; conditions: read-out: Activity
HCT-116 [8] = assay: Antiproliferative activity against human HCT-116 cells assessed as cell viability at 50 uM measured after 24 hrs relative to control; type: functional; conditions: read-out: Activity
MGC-803 [9] = assay: Antiproliferative activity against human MGC-803 cells assessed as reduction in cell viability measured after 24 hrs; type: functional, cell-based; conditions: MGC-803, 24 h

SMILES | Activity (HCT-116 [1]) | Activity (MGC-803 [2]) | Activity (MCF7 [3]) | viability at 50 µM (MGC-803 [4]) [%] | IC50 (MCF7 [5]) [µM] | IC50 (HCT-116 [6]) [µM] | viability at 50 µM (MCF7 [7]) [%] | viability at 50 µM (HCT-116 [8]) [%] | IC50 (MGC-803 [9]) [µM]
COC(=O)CCCn1c2c(c3ccc(OC)cc31)CCN=C2C | Active | Active | Active |  |  |  |  |  | 
C=CCn1c2c(c3ccc(OC)cc31)CCN=C2C | Active | Active | Active |  |  |  |  |  | 
COc1ccc2c3c(n(Cc4ccccc4F)c2c1)C(C)=NCC3 | Active | Active | Active |  |  |  |  |  | 
COc1ccc2c3c(n(CCCCBr)c2c1)C(C)=NCC3 | Active | Active | Active |  |  |  |  |  | 
COc1ccc2c3c(n(CCc4ccc(F)cc4)c2c1)C(C)=NCC3 | Active | Active | Active |  |  |  |  |  | 
COC(=O)CCCCn1c2c(c3ccc(OC)cc31)CCN=C2C | Active | Active | Active |  |  |  |  |  | 
COc1ccc2c3c(n(C/C=C/c4ccccc4)c2c1)C(C)=NCC3 | Active | Active | Active |  |  |  |  |  | 
COc1ccc2c3c(n(CCCCCBr)c2c1)C(C)=NCC3 | Active | Active | Active |  |  |  |  |  | 
COc1ccc2c3c(n(Cc4ccc(F)cc4)c2c1)C(C)=NCC3 | Active | Active | Active |  |  |  |  |  | 
COc1ccc2c3c(n(CCCCCCn4c5cc(OC)ccc5c5ccnc(C)c54)c2c1)C(C)=NCC3 | Active | Active | Active |  |  |  |  |  | 
COc1ccc2c3c(n(Cc4cccc(C)c4)c2c1)C(C)=NCC3 | Active | Active | Active |  |  |  |  |  | 
COc1ccc2c3c(n(CCCCn4c5cc(OC)ccc5c5ccnc(C)c54)c2c1)C(C)=NCC3 |  |  |  | < 10 | 18.7 | 4.5 | < 10 | < 10 | 10.2
